Among the data in the SangsterLogP compilation are logP values, retold here.

The first series can be described thus: method code SF-RC, from PMID: 582926.
As for `C[C@H]1O[C@@H](O[C@H]2CC[C@@]3(C)[C@H](CC[C@@H]4[C@@H]3CC[C@]3(C)[C@@H](C5=CC(=O)OC5)CC[C@]43O)C2)C[C@H](O)[C@@H]1O[C@H]1C[C@H](O)[C@H](O[C@H]2C[C@H](O)[C@H](O[C@@H]3O[C@H](C(=O)O)[C@@H](O)[C@H](O)[C@H]3O)[C@@H](C)O2)[C@@H](C)O1`, the logP is -1.1. In turn, `C[C@]12CC[C@H](O)C[C@H]1CC[C@H]1C3=CC[C@H](C4=CC(=O)OC4)[C@@]3(C)CC[C@@H]12` gave a logP of 2.52. In the case of `CC(=O)O[C@H]1C[C@H](O[C@H]2[C@@H](O)C[C@H](O[C@H]3[C@@H](O)C[C@H](O[C@H]4CC[C@@]5(C)[C@@H](CC[C@@H]6[C@H]5CC[C@]5(C)[C@@H](C7=CC(=O)OC7)CC[C@]65O)C4)O[C@@H]3C)O[C@@H]2C)O[C@H](C)[C@H]1O[C@@H]1O[C@H](CO)[C@@H](O)[C@H](O)[C@H]1O`, the logP was 1.23. As for `CO[C@H]1CC(O[C@H]2CC[C@@]3(C)[C@H](CC[C@@H]4[C@@H]3CC[C@]3(C)[C@@H](C5=CC(=O)OC5)[C@@H](OC(C)=O)C[C@]43O)C2)O[C@@H](C)[C@@H]1OC(C)=O` (stereo not given in full), the logP came out at 2.95. For `CC1OC(OC2CCC3(C)C(CCC4C3CC(O)C3(C)C(C5=CC(=O)OC5)CCC43O)C2)CC(O)C1OC1CC(O)C(OC2CC(O)C(OC3OC(C(=O)O)C(O)C(O)C3O)C(C)O2)C(C)O1` (stereo not given), the logP is -1.77. `CC(=O)OC1CC2(O)C3CCC4CC(O)CCC4(C)C3CCC2(C)C1C1=CC(=O)OC1` (stereo not given) returned a logP of 1.93. In turn, `CO[C@H]1C[C@H](O[C@H]2CC[C@@]3(C)[C@H](CC[C@@H]4[C@@H]3CC[C@]3(C)[C@@H](C5=CC(=O)OC5)CC[C@]43O)C2)O[C@@H](C)[C@@H]1O` came in with a log partition coefficient (logP) of 2.37.

Compound `CC(=O)OC1CC(OC2C(O)CC(OC3C(O)CC(OC4CCC5(C)C(CCC6C5CC(O)C5(C)C(C7=CC(=O)OC7)CCC65O)C4)OC3C)OC2C)OC(C)C1O` (stereo not given) came in with a logP of 1.97. With `CC(=O)OC1C[C@@H](OC2C(O)C[C@@H](OC3C(O)C[C@@H](OC4CC[C@@]5(C)[C@H](CC[C@H]6[C@H]5CC(O)[C@]5(C)C(C7=CC(=O)OC7)CC[C@]65O)C4)OC3C)OC2C)OC(C)C1O[C@H]1OC(CO)C(O)C(O)C1O` (stereo not given in full), the logP stood at 0.07. Same read-out and setting: the result for `CC1OC(OC2CCC3(C)C(CCC4C3CCC3(C)C(C5=CC(=O)OC5)C(O)CC43O)C2)CC(O)C1O` (stereo not given) reads 1.76; that for `CC1OC(OC2CCC3(C)C(CCC4C3CCC3(C)C(C5=CC(=O)OC5)CCC43O)C2)CC(O)C1O` (stereo not given), 2.48; that for `CO[C@H]1CC(O[C@H]2CC[C@@]3(C)[C@H](CC[C@@H]4[C@@H]3CC[C@]3(C)[C@@H](C5=CC(=O)OC5)[C@@H](OC(C)=O)C[C@]43O)C2)O[C@H](C)C1=O` (stereo not given in full), 1.65. Compound `CO[C@H]1[C@@H](O)C[C@H](O[C@H]2[C@@H](O)C[C@H](O[C@H]3[C@@H](O)C[C@H](O[C@H]4CC[C@@]5(C)[C@H](CC[C@@H]6[C@@H]5C[C@@H](O)[C@]5(C)[C@@H](C7=CC(=O)OC7)CC[C@]65O)C4)O[C@@H]3C)O[C@@H]2C)O[C@@H]1C` yielded a logP of 1.73. Same read-out and setting: the result for `C[C@H]1O[C@@H](O[C@H]2[C@@H](O)C[C@H](O[C@H]3CC[C@@]4(C)[C@@H](CC[C@@H]5[C@@H]4CC[C@]4(C)[C@@H](C6=CC(=O)OC6)CC[C@]54O)C3)O[C@@H]2C)C[C@H](O)[C@@H]1O` reads 2.15; that for `CC1O[C@H](O[C@H]2CC[C@]3(CO)C4CC[C@]5(C)[C@@H](C6=CC(=O)OC6)CC[C@]5(O)C4CC[C@]3(O)C2)C(O)C(O)[C@@H]1O` (stereo not given in full), -0.62.

The next series in a line: method code SF-CR, from PMID: 582926.
On to `CC1OC(OC2CCC3(CO)C4CCC5(C)C6(C=CC(=O)OC6)CCC5(O)C4CCC3(O)C2)CC(O)C1O` (stereo not given), for which the logP is 0.15. In turn, `CC(=O)O[C@H]1C[C@H](O[C@H]2CC[C@@]3(C)[C@H](CC[C@@H]4[C@@H]3C[C@@H](O)[C@]3(C)[C@@H](C5=CC(=O)OC5)CC[C@]43O)C2)O[C@H](C)[C@H]1O[C@H]1C[C@H](OC(C)=O)[C@H](O[C@H]2C[C@H](O)[C@H](O)[C@@H](C)O2)[C@@H](C)O1` had a logP of 2.45. Turning to `COC1CC(OC2CC[C@@]3(C)[C@H](CC[C@@H]4[C@H]3CC[C@]3(C)C(C5=CC(=O)OC5)C(OC(C)=O)C[C@]43O)C2)OC(C)C1O` (stereo not given in full), the logP is 2.26.

In the case of `CO[C@H]1C[C@H](O[C@H]2CCC3(CO)C4CCC5(C)[C@@H](C6=CC(=O)OC6)CCC5(O)C4CCC3(O)C2)O[C@H](C)[C@H]1O` (stereo not given in full), the logP came out at 0.56. On the same count and under the same terms, the result for `C[C@@H]1O[C@@H](O[C@H]2CC[C@]3(C=O)[C@H]4CC[C@]5(C)[C@@H](C6=CC(=O)OC6)CC[C@]5(O)[C@@H]4CC[C@]3(O)C2)[C@H](O)[C@H](O)[C@H]1O` reads -0.48; that for `C[C@H]1O[C@@H](O[C@H]2[C@@H](O)C[C@H](O[C@H]3[C@@H](O)C[C@H](O[C@H]4CC[C@@]5(C)[C@H](CC[C@@H]6[C@@H]5CC[C@]5(C)[C@@H](C7=CC(=O)OC7)[C@@H](O)C[C@]65O)C4)O[C@@H]3C)O[C@@H]2C)C[C@H](O)[C@@H]1O`, 1.66.

As for `CC12CCC(OC3OC(CO)C(O)C(O)C3O)CC1CCC1C2CCC2(C)C(C3=CC(=O)OC3)CCC12O` (stereo not given), the logP was -0.64.

In turn, `CC(=O)OC1CC(OC2CCC3(C)C(CCC4C3CC(O)C3(C)C(C5=CC(=O)OC5)CCC43O)C2)OC(C)C1OC1CC(O)C(OC2CC(O)C(O)C(C)O2)C(C)O1` (stereo not given) gave a logP of 1.71. In turn, `CC(=O)O[C@H]1C[C@]2(O)[C@@H]3CC[C@@H]4C[C@@H](O[C@H]5C[C@H](O)[C@H](O[C@H]6C[C@H](O)[C@H](O[C@H]7C[C@H](O)[C@H](O)[C@@H](C)O7)[C@@H](C)O6)[C@@H](C)O5)CC[C@]4(C)[C@H]3CC[C@]2(C)[C@H]1C1=CC(=O)OC1` had a logP of 2.15. `CC(=O)O[C@H]1[C@@H](OC(C)=O)C[C@H](O[C@H]2[C@@H](OC(C)=O)C[C@H](O[C@H]3[C@@H](OC(C)=O)C[C@H](O[C@H]4CC[C@@]5(C)[C@H](CC[C@@H]6[C@@H]5CC[C@]5(C)[C@@H](C7=CC(=O)OC7)[C@@H](OC(C)=O)C[C@]65O)C4)O[C@@H]3C)O[C@@H]2C)O[C@@H]1C`: the logP turned out to be 2.85. In turn, `C[C@H]1O[C@@H](O[C@H]2CC[C@]3(C=O)[C@H]4CC[C@]5(C)[C@@H](C6=CC(=O)OC6)CC[C@]5(O)[C@@H]4CC[C@]3(O)C2)C[C@H](O)[C@@H]1O` displayed a logP of 0.3.

Turning to `CO[C@H]1[C@H](O)[C@H](O[C@H]2CC[C@@]3(C)[C@H](CC[C@@H]4[C@@H]3CC[C@]3(C)[C@@H](C5=CC(=O)OC5)CC[C@]43O)C2)O[C@@H](C)[C@@H]1O`, the logP came to 2.1.

Turning to `C[C@@H]1O[C@@H](O[C@H]2CC[C@@]3(C)[C@H](CC[C@@H]4[C@@H]3CC[C@]3(C)[C@@H](C5=CC(=O)OC5)CC[C@]43O)C2)[C@H](O)[C@H](O)[C@H]1O`, the logP is 2.1. On the same count and under the same terms, the result for `CO[C@H]1[C@H](O)[C@H](O[C@H]2CC[C@@]3(C=O)[C@H](CC[C@@H]4[C@@H]3CC[C@]3(C)[C@@H](C5=CC(=O)OC5)CC[C@]43O)C2)O[C@@H](C)[C@@H]1O` reads 1.05.

Another series can be described thus: method code SF-AS, from PMID: 582926.
`C[C@@H]1O[C@@H](O[C@@H]2C=C3CC[C@@H]4[C@H](CC[C@]5(C)[C@@H](c6ccc(=O)oc6)CC[C@]45O)[C@@]3(C)CC2)[C@H](O)[C@H](O)[C@H]1O` returned a logP of 2.48.

A word on the logP: it is the decadic logarithm of the partition coefficient of the neutral form, usually between octanol and water. Low readings indicate a more hydrophilic compound, high ones a more lipophilic compound.
